The record followed here is publication PMC11194663, “Synthesis and biological research of new imidazolone-sulphonamide-pyrimidine hybrids as potential EGFR-TK inhibitors and apoptosis-inducing agents” (RSC Advances, 2024).

For data set [1], the system named is breast MCF-7 cancerous cell line. The experiment in a line: MTT cytotoxicity assay. The settings on record: Homo sapiens, MCF7, 24 h, read-out: IC50 (μM) MCF-7. (Formazan colour is commonly taken as a measure of viable cells.)
Procedure: The MTT colorimetric method, a frequently utilized assay for detecting the in vitro cytotoxic activities of drugs, was chosen to evaluate the cytotoxic action of the imidazolone-sulphonamide-pyrimidine hybrids 5a–l and 6a,b in hands against breast MCF-7 adenocarcinoma cell line, and they were compared to Dox as the positive control.
under 5% CO2. After incubation, the cells were treated with different concentrations of the test imidazolone hybrids 5a-l and 6a,b and incubated for 24 h, then 20 l of MTT
The target in data set [2] is T1, EGFR-TK (Homo sapiens, UniProt P00533).
T1 construct: purchased BPS Bioscience 40321
T1 sequence (P00533 25-1210): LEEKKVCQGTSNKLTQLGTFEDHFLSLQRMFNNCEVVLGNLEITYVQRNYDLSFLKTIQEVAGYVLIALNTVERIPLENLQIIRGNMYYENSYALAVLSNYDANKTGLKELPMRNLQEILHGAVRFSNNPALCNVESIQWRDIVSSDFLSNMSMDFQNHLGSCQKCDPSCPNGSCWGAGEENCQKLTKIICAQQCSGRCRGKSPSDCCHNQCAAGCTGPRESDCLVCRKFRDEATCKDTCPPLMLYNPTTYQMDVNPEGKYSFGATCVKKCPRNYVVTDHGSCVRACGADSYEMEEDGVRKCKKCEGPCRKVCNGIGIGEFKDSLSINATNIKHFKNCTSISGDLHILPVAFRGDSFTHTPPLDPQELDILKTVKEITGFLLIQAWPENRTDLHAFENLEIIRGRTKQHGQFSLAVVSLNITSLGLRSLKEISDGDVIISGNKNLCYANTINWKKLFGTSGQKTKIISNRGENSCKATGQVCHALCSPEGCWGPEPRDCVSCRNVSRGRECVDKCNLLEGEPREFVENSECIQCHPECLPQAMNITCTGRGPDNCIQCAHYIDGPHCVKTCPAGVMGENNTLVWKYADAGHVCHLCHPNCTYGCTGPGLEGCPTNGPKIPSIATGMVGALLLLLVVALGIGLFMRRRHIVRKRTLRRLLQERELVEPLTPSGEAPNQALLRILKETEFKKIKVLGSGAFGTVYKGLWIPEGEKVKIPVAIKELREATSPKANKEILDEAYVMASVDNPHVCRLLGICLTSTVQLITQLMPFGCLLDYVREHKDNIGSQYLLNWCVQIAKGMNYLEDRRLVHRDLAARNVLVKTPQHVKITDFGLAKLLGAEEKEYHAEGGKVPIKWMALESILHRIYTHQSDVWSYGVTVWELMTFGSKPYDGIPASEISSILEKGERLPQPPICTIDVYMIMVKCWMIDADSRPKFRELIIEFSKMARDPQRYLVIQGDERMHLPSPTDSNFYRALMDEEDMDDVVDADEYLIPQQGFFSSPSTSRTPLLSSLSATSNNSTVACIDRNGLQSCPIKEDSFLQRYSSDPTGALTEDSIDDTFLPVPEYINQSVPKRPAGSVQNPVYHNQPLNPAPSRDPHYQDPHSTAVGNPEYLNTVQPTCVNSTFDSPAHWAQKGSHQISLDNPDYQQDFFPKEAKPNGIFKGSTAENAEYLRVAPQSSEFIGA
Kind of data set: EGFR kinase inhibitory assay (BPS Bioscience EGFR Kinase Assay Kit). The settings on record: mean of three replicates; read-out: IC50 on EGFR enzyme. The class given is biochemical. How it is done: S4.2.1. Cytotoxic activity evaluation […]
adenocarcinoma (MCF-7) cell line. Cell viability assay was assessed using MTT assay […]
under 5% CO2. After incubation, the cells were treated with different concentrations of the test imidazolone hybrids 5a-l and 6a,b and incubated for 24 h, then 20 µl of MTT […]
(DMSO) in volume of 100 µl was added to each well to dissolve the purple formazan that had formed. The color intensity of the formazan product, which represents the […]
USA) at 570 nm absorbance. The experimental conditions were carried out with at least three replicates, and the experiments were repeated at least three times.
S4.2.2. EGFR kinase Assay […]
activity according to manufacturer’s instructions using # BPS Bioscience EGFR

Data set [3] concerns MCF-7 cells. The experiment in a line: Cell cycle analysis by flow cytometry (PI). Type of data set: cell-based. The settings on record: 1.05 μM (IC50), 48 h. How it is done: The impact of the best potent hybrid molecule on the cellular cycle distribution was further evaluated on the MCF-7 cell line.
S4.2.3. Cell cycle analysis of compound 6b
Cell cycle analysis in MCF-7 cells was investigated using fluorescent Annexin V-FITC/ PI detection kit (BioVision EZCellTM Cell Cycle Analysis Kit Catalog #K920) by flow cytometry assay. MCF-7 cells at a density of 2 × 10^5 per well were harvested and washed twice in PBS. After that, the cells were incubated at 37 °C and 5% CO2. The medium was incubated with the tested compound 6b at the IC50 (µM) for 48 h, washed twice in PBS, fixed with 70% ethanol, rinsed again with PBS. Afterward, medium was stained with DNA fluorochrome PI for 15 min at 37 °C. The samples were immediately analyzed using Facs Calibur flow cytometer (Becton and Dickinson, Heidelberg, […]
S4.2.4. Apoptosis assay for compound 6b
(1 picture or pasted object on this page, not shown here)

In data set [4] the test system is MCF-7 cells. Kind of data set: Annexin V-FITC/PI apoptosis assay by flow cytometry. The class given is cell-based. The settings on record: IC50 concentration, 48 h. The text has this: Apoptosis, a form of programmed cellular death, is a widespread phenomenon, occurring in processes such as morphogenesis, growth and development as well as normal turnover in adult tissue.[35] Most cells are programmed to die if survival signals are not received regularly from their environment.[36] It can be initiated by endogenous tissue-specific agents such as cytokines or exogenous cell-damaging agents such as chemicals.[37] It is evidenced from the literature that exposure to EGFR-TK inhibitors leads to cellular apoptosis.[38] Thus, the effect of examined 4-(furan-2-ylmethylene)imidazolone-sulphonamide-pyrimidine hybrid 6b on the apoptosis of the MCF-7 cells was assessed utilizing Annexin V-FITC/PI double labeling followed by flow cytometry (Fig. 4). […] 4-(furan-2-ylmethylene)imidazolone-sulphonamide-pyrimidine hybrid 6b induced 46.1% apoptosis in the MCF-7 cancer cells. Thus, it is evident that this compound had substantial apoptosis-inducing action against the MCF-7 breast cancerous cell line.
Apoptosis in MCF-7 cells was investigated using fluorescent Annexin V-FITC/ PI detection kit (BioVision Annexin V-FITC Apoptosis Detection Kit, Catalog #: K101) by flow cytometry assay. MCF-7 cells at a density of 2 × 10^5 per well were treated with compound 6b at the IC50 (µM) for 48 h, then the cells were harvested and stained with Annexin V-FITC/ PI dye for 15 min in the dark at 37 °C. The samples were immediately analyzed using FACS Calibur flow cytometer (Becton and Dickinson, […]
In general terms: A flow cytometer gives signals particle by particle.

For data set [5], the system named is Bcl-2. Kind of data set: qRT-PCR expression of pro-survival Bcl-2 in MCF-7 cells. Type of data set: cell-based. The settings on record: IC50 concentration, 48 h, MCF-7, decline. The text has this:
(§1) The Bcl-2 family members are essential in determining whether a cell will survive or perish since they reside upstream of the irreversible cellular damage.[40] Two groups of the Bcl-2 family proteins are distinguished by pro-survival (e.g. Bcl-2) or pro-apoptotic (Bax) activity.[41] The pro-apoptotic factors promote cellular death. When Bcl-2-associated x-protein (Bax) homodimerizes it enhances apoptosis. The anti-apoptotic effect of Bcl-2 may be due to its ability to inhibit Bax homodimerization.[42,43] […] It is noteworthy, that the level of pro-survival Bcl-2 protein declined by 0.28-fold compared to the control untreated cells. […] These findings support that 4-(furan-2-ylmethylene)imidazolone-sulphonamide-pyrimidine hybrid 6b induces apoptosis by regulating the expression of Bcl-2 family proteins.
(§2) Fig. 5 Roles of Bcl-2 family protein in apoptosis induced by 4-(furan-2-ylmethylene)imidazolone-sulphonamide-pyrimidine hybrid 6b. (A) Pro-survival Bcl-2 protein; (B) pro-apoptotic Bax protein. Cells underwent treatment with an IC50 concentration of imidazolone hybrids 6b for 48 h and the expression of apoptosis-related proteins was examined by qRT-PCR assay.

Data set [6] concerns Bax. The experiment in a line: qRT-PCR expression of pro-apoptotic Bax in MCF-7 cells. The settings on record: IC50 concentration, 48 h, MCF-7, increase. Type of data set: cell-based.
Text: as §1, §2
(Quantitative PCR measures a nucleic acid by following its amplification.)

Where only a bound is given, the exact number is not on record here.

With `O=C1/C(=C/c2ccc(Br)cc2)N=C(c2ccccc2)N1c1ccc(S(=O)(=O)Nc2ncccn2)cc1` [5a, (Z)-4-(4-(4-bromobenzylidene)-5-oxo-2-phenyl-4,5-dihydro-1H-imidazole-1-yl)-N-(pyrimidin-2-yl)benzenesulfonamide], the melting point (in general, the temperature of the solid-liquid transition) was 290 to 292 °C. The IC50 – broadly, the point on the concentration scale where inhibition reaches its midpoint – in data set [1] was found to be 14.1 ± 0.68 µM.

In turn, `O=C1/C(=C/c2ccccc2O)N=C(c2ccccc2)N1c1ccc(S(=O)(=O)Nc2ncccn2)cc1` [5b, (Z)-4-(4-(2-hydroxybenzylidene)-5-oxo-2-phenyl-4,5-dihydro-1H-imidazole-1-yl)-N-(pyrimidin-2-yl)benzenesulfonamide] came in with a melting point of 188 to 190 °C. In data set [1], the IC50 came out at 31.4 ± 1.64 µM.

For the compound `Cc1ccc(/C=C2\N=C(c3ccccc3)N(c3ccc(S(=O)(=O)Nc4ncccn4)cc3)C2=O)cc1` [5c, (Z)-4-(4-(4-methylbenzylidene)-5-oxo-2-phenyl-4,5-dihydro-1H-imidazole-1-yl)-N-(pyrimidin-2-yl)benzenesulfonamide], the melting point lay in the range of 277 to 279 °C. The IC50 in data set [1] was found to be 43.9 ± 2.24 µM.

Compound `CC(=O)Oc1c(Br)cc(/C=C2\N=C(c3ccccc3)N(c3ccc(S(=O)(=O)Nc4ncccn4)cc3)C2=O)cc1Br` [5d, (Z)-2,6-dibromo-4-((5-oxo-2-phenyl-1-(4-(N-pyrimidin-2-ylsulfamoyl)phenyl)-1H-imidazole-4(5H)-ylidene)methyl)phenyl acetate] registered a melting point of 243 to 245 °C. For the same compound, the IC50 in data set [1] was 29.4 ± 1.64 µM.

On to `COc1ccc(/C=C2\N=C(c3ccccc3)N(c3ccc(S(=O)(=O)Nc4ncccn4)cc3)C2=O)c(OC)c1OC` [5e, (Z)-4-(5-oxo-2-phenyl-4-(2,3,4-trimethoxybenzylidene)-4,5-dihydro-1H-imidazole-1-yl)-N-(pyrimidin-2-yl)benzenesulfonamide], for which the melting point was in the range of 210 to 212 °C. Also, the IC50 in data set [1] is 37.2 ± 1.98 µM.

The compound `COc1ccc(C2=N/C(=C\c3ccccc3)C(=O)N2c2ccc(S(=O)(=O)Nc3ncccn3)cc2)cc1` [5f, (Z)-4-(4-benzylidene-2-(4-methoxyphenyl)-5-oxo-4,5-dihydro-1H-imidazole-1-yl)-N-(pyrimidin-2-yl)benzenesulfonamide] displayed a melting point of 258 to 260 °C. The IC50 in data set [1] is 85.2 ± 4.72 µM.

Consider `COc1ccc(C2=N/C(=C\c3ccc(F)cc3)C(=O)N2c2ccc(S(=O)(=O)Nc3ncccn3)cc2)cc1` [5g, (Z)-4-(4-(4-fluorobenzylidene)-2-(4-methoxyphenyl)-5-oxo-4,5-dihydro-1H-imidazole-1-yl)-N-(pyrimidin-2-yl)benzenesulfonamide], for which the melting point was in the range of 257 to 259 °C. Moreover, the IC50 in data set [1] was 4.57 ± 0.09 µM.

In turn, `COc1ccc(C2=N/C(=C\c3ccc(Cl)cc3)C(=O)N2c2ccc(S(=O)(=O)Nc3ncccn3)cc2)cc1` [5h, (Z)-4-(4-(4-chlorobenzylidene)-2-(4-methoxyphenyl)-5-oxo-4,5-dihydro-1H-imidazole-1-yl)-N-(pyrimidin-2-yl)benzenesulfonamide] registered a melting point of 262 to 264 °C. Also, the IC50 in data set [2] is 0.16 µM. Further, the IC50 in data set [1] amounted to 3.71 ± 0.2 µM.

`COc1ccc(C2=N/C(=C\c3ccc(Br)cc3)C(=O)N2c2ccc(S(=O)(=O)Nc3ncccn3)cc2)cc1` [5i, (Z)-4-(4-(4-bromobenzylidene)-2-(4-methoxyphenyl)-5-oxo-4,5-dihydro-1H-imidazole-1-yl)-N-(pyrimidin-2-yl)benzenesulfonamide]: the melting point fell in the range of 284 to 286 °C. For the same compound, the IC50 in data set [1] stood at 9.98 ± 0.61 µM.

Consider `COc1ccc(C2=N/C(=C\c3ccc([N+](=O)[O-])cc3)C(=O)N2c2ccc(S(=O)(=O)Nc3ncccn3)cc2)cc1` [5j, (Z)-4-(2-(4-methoxyphenyl)-4-(4-nitrobenzylidene)-5-oxo-4,5-dihydro-1H-imidazole-1-yl)-N-(pyrimidin-2-yl)benzenesulfonamide], for which the melting point was > 300 °C. The IC50 in data set [2] came to 0.21 µM. The IC50 in data set [1] is 3.14 ± 0.16 µM.

Regarding `COc1ccc(C2=N/C(=C\c3cc(Br)c(OC(C)=O)c(Br)c3)C(=O)N2c2ccc(S(=O)(=O)Nc3ncccn3)cc2)cc1` [5k, (Z)-2,6-dibromo-4-((2-(4-methoxyphenyl)-5-oxo-1-(4-(N-pyrimidin-2-ylsulfamoyl)phenyl)-1H-imidazole-4(5H)-ylidene)methyl)phenyl acetate], the melting point was 239 to 241 °C. Besides, the IC50 in data set [1] was found to be 14.5 ± 0.65 µM.

`COc1ccc(C2=N/C(=C\c3cc(OC)c(OC)c(OC)c3)C(=O)N2c2ccc(S(=O)(=O)Nc3ncccn3)cc2)cc1` [5l, (Z)-4-(2-(4-methoxyphenyl)-5-oxo-4-(3,4,5-trimethoxybenzylidene)-4,5-dihydro-1H-imidazole-1-yl)-N-(pyrimidin-2-yl)benzenesulfonamide] yielded a melting point of 247 to 249 °C. Further, the IC50 in data set [1] stood at 25.8 ± 1.24 µM.

In turn, `O=C1/C(=C/c2ccco2)N=C(c2ccccc2)N1c1ccc(S(=O)(=O)Nc2ncccn2)cc1` [6a, (Z)-4-(4-(furan-2-ylmethylene)-5-oxo-2-phenyl-4,5-dihydro-1H-imidazole-1-yl)-N-(pyrimidin-2-yl)benzenesulfonamide] yielded a melting point of 291 to 293 °C. In addition, the IC50 in data set [1] was 5.09 ± 0.31 µM.

Take `COc1ccc(C2=N/C(=C\c3ccco3)C(=O)N2c2ccc(S(=O)(=O)Nc3ncccn3)cc2)cc1` [6b, (Z)-4-(4-(furan-2-ylmethylene)-2-(4-methoxyphenyl)-5-oxo-4,5-dihydro-1H-imidazole-1-yl)-N-(pyrimidin-2-yl)benzenesulfonamide]: the IC50 in data set [2] worked out at 0.09 µM; in data set [1], 1.05 ± 0.04 µM. The “MCF-7 cells in G2/M phase” value in data set [3] (control 13.7%) was found to be 10.8%. In addition, the “MCF-7 cells in S phase” value in data set [3] (control 35.1%) amounted to 24.3%. Moreover, the “MCF-7 cells in G1 phase” value in data set [3] (control 51.2%) is 64.9%. Further, the “apoptosis induced in MCF-7 cells (total)” value in data set [4] was determined as 46.1%. The “apoptotic cells in the late stage (upper right quadrant)” value in data set [4] (control 0.2%) is listed as 23.4%. Moreover, in data set [4] (control 0.6%), the “apoptotic cells in the early stage (lower right quadrant)” value was 22.7%. Also, the “Bcl-2 expression level relative to untreated control” value in data set [5] was found to be 0.28 fold. Further, in data set [6], the “Bax expression level relative to untreated control” value was found to be 4.54 fold.

`COc1cccc2c1C(=O)c1c(O)c3c(c(O)c1C2=O)C[C@@](O)(C(=O)CO)C[C@@H]3O[C@H]1C[C@H](N)[C@H](O)[C@H](C)O1` [Dox, doxorubicin, reference compound]: the IC50 in data set [1] turned out to be 1.91 ± 0.07 µM.
